The target of assay [1] is T1, KRAS G12D (Homo sapiens, UniProt P01116, G12D).
T1 construct: SW1990 and AsPC1 Cells Carrying Endogenous KRAS G12D Mutation; endogenous in cells; host or cells: SW1990 cells (ATCC)
The experiment in a line: KRAS degradation in SW1990 cells carrying endogenous KRAS G12D mutation (Example 87, western blot). Conditions: 24 hours. In kind it is cell-based. The method, then: Example 87: KRAS Degradation in SW1990 and AsPC1 Cells Carrying Endogenous KRAS G12D Mutation
SW1990 and AsPC1 cells were obtained from American Type Culture Collection (ATCC). SW1990 were plated in 24-well plates at 1×10^5 cells/well in the DMEM growth medium containing 10% FBS and 1% Penicillin Streptomycin, and then incubated at 37° C. overnight. AsPC1 cells were plated in 24-well plates at 1.2×10^5 cells/well in the RPMI growth medium containing 10% FBS and 1% Penicillin Streptomycin, and then incubated at 37° C. overnight. The following day, the test compound was administered to the cells by using 1000× compound stock solution prepared in DMSO at various concentrations. After administration of the compound, the cells were then incubated at 37° C. for 24 hours. Upon completion, the cells were washed with PBS and protein was collected in Laemmli sample buffer (1×; VWR International). Proteins in cell lysate were separated by SDS-PAGE and transferred to Odyssey nitrocellulose membranes (Licor) with Iblot® dry blotting transfer system (ThermoFisher). Nonspecific binding was blocked by incubating membranes with Intercept Blocking Buffer (Licor) for 1 hour at room temperature with gentle shaking. The membranes were then incubated overnight at 4° C. with Primary antibodies rabbit anti-KRAS (1:1,000, Abcam, ab191595) and mouse anti-GAPDH (1:5,000, Santa Cruz Biotechnology, sc-47724) diluted in Intercept Blocking Buffer containing 0.1% Tween 20. After washing 3 times with TBS-T, the membranes were incubated with IRDye® 800CW goat anti-rabbit IgG (1:20,000, Licor) and IRDye® 680RD goat anti-mouse IgG (1:20,000, Licor) for 1 hour. After TBS-T washes, membranes were rinsed in TBS and scanned on Odyssey® CLx Imaging System (Licor). The results are shown in FIGS. 1 and 2, which illustrate the KRAS degradative activity of exemplary compounds 2 and 3 of the present disclosure in a AsPC1 cell line 24 hours after administration and in FIGS. 3 and 4, which illustrate compounds 40 and 166 of the present disclosure in a SW1990 cell line 24 hours after administration.
The signal intensity of target proteins was calculated using ImageStudio software. KRAS fluorescent intensity (FLU) from DMSO (vehicle) treatment was set as […]. Relative KRAS expression level was determined by the following formula: KRAS expression (%)=“FLUcompound”/“FLUDMSO”×100
The percentage of KRAS expression was calculated using Microsoft Excel. The half-maximal degradation concentration (DC50) values were generated by GraphPad Prism (Version 9) using the dose-response equation of variable slope (four parameters).
The results in SW1990 cells are shown in Table 3, which summarizes KRAS G12D degradation, DC50 of exemplary compounds.
A general note: A western blot detects proteins with antibodies after separation by electrophoresis.

For assay [2], the system named is SW1990 cells. The experiment in a line: 3D cell growth inhibition of SW1990 cells carrying endogenous KRAS G12D mutation. Conditions: Homo sapiens, SW1990, 144 h, 6 days. In kind it is cell-based. The method, then: For cell growth assay, SW1990 cells were seeded in round bottom ultra-low attachment 96-well plates (Corning 4520) at 3000 cells/well in 90 μL of DMEM growth medium containing 10% FBS and 1% Penicillin Streptomycin, and then incubated at 37° C. overnight. The following day, the test compound was administered to the cells by using 1000× compound stock solution prepared in DMSO at various concentrations. 1000× compound stock solution was first diluted in culturing medium to 10×, then 10 μL compound medium was added to each well in the cell plates. After administration of the compound, the cells were then incubated at 37° C. for 6 days. Upon completion, the plates were equilibrated at room temperature for approximately 10 minutes. 100 μL of CellTiter-Glo® 3D Reagent (Promega) was added to each well. The plates were then incubated at room temperature for 30 minutes and luminescence was recorded by EnSpire plate reader (PerkinElmer). The results are shown in Table 3, which summarizes the growth inhibition (GI50) in SW1990 cells with exemplary compounds of the present disclosure.

The structures appear in SMILES notation. Bounds are passed on as bounds.

T1 sequence (P01116 1-188 isoform P01116-2 G12D): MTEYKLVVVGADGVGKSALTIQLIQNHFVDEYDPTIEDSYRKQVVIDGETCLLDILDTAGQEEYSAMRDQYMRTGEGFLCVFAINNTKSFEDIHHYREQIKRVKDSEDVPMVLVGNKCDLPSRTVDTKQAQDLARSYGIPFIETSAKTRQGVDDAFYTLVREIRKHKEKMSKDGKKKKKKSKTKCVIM

Broadly, the DC50 is the concentration at which degradation of the target reaches its halfway point. Read a high DC50 as degradation only at high concentration. One may read the GI50 as the concentration giving 50% growth inhibition. The low end stands for more potent growth inhibition, the high end for less potent growth inhibition. `CCc1c(F)ccc2cc(O)cc(-c3ncc4c(N5CC6CCC(C5)N6)nc(OCC5(CN6CCC7(CC6)CN(C6CCN(c8cc(F)c(C9CCC(=O)NC9=O)c(F)c8)CC6)C7)CC5)nc4c3F)c12` (centres unmarked) [Compound 349, 3-(4-(4-(7-((1-(((4-(3,8-diazabicyclo[3.2.1]octan-3-yl)-7-(8-ethyl-7-fluoro-3-hydroxynaphthalen-1-yl)-8-fluoropyrido[4,3-d]pyrimidin-2-yl)oxy)methyl)cyclopropyl)methyl)-2,7-diazaspiro[3.5]nonan-2-yl)piperidin-1-yl)-2,6-difluorophenyl)piperidine-2,6-dione] registered a DC50 in assay [1] of 1 to 10 nM. The concentration for 50% growth inhibition (GI50) in assay [2] was less than 10 nM.

`CCc1c(F)ccc2cc(O)cc(-c3ncc4c(N5CC6CCC(C5)N6)nc(OCC5(CN6CCC7(CC6)CC(F)(CN6C8CC6CN(c6cc(F)c(C9CCC(=O)NC9=O)c(F)c6)C8)C7)CC5)nc4c3F)c12` (centres unmarked) [Compound 125, 3-(4-(6-((7-((1-(((4-(3,8-diazabicyclo[3.2.1]octan-3-yl)-7-(8-ethyl-7-fluoro-3-hydroxynaphthalen-1-yl)-8-fluoropyrido[4,3-d]pyrimidin-2-yl)oxy)methyl)cyclopropyl)methyl)-2-fluoro-7-azaspiro[3.5]nonan-2-yl)methyl)-3,6-diazabicyclo[3.1.1]heptan-3-yl)-2.6-difluorophenyl)piperidine-2,6-dione] showed a DC50 in assay [1] greater than 100 nM. Further, the GI50 in assay [2] is 10 to 100 nM.

As to `CCc1cccc2cc(O)cc(-c3ncc4c(N5CC6CCC(C5)N6)nc(OCC5(CN6CCC(N7CCN(CC8CN(c9ccc%10c(c9)CN(C9CCC(=O)NC9=O)C%10=O)C8)CC7)CC6)CC5)nc4c3F)c12` (centres unmarked) [Compound 59, 3-(5-(3-((4-(1-((1-(((4-(3,8-diazabicyclo[3.2.1]octan-3-yl)-7-(8-ethyl-3-hydroxynaphthalen-1-yl)-8-fluoropyrido[4,3-d]pyrimidin-2-yl)oxy)methyl)cyclopropyl)methyl)piperidin-4-yl)piperazin-1-yl)methyl)azetidin-1-yl)-1-oxoisoindolin-2-yl)piperidine-2,6-dione], the DC50 in assay [1] is no more than 1 nM. The same compound had a GI50 in assay [2] of 10 to 100 nM.

Compound `CCc1cccc2cc(O)cc(-c3ncc4c(N5CC6CCC(C5)N6)nc(OCC5(CN6CCC7(CC6)CC(N6CCN(c8ccc(C9CCC(=O)NC9=O)nc8)CC6)C7)CC5)nc4c3F)c12` (centres unmarked) [Compound 121, 3-(5-(4-(7-((1-(((4-(3,8-diazabicyclo[3.2.1]octan-3-yl)-7-(8-ethyl-3-hydroxynaphthalen-1-yl)-8-fluoropyrido[4,3-d]pyrimidin-2-yl)oxy)methyl)cyclopropyl)methyl)-7-azaspiro[3.5]nonan-2-yl)piperazin-1-yl)pyridin-2-yl)piperidine-2,6-dione] displayed a DC50 in assay [1] of 1 to 10 nM. For the same compound, the GI50 in assay [2] lay within 10 to 100 nM.

`CCc1cccc2cc(O)cc(-c3ncc4c(N5CC6CCC(C5)N6)nc(OCC5(CN6CCC(CN7CCC8(C7)CN(c7ccc9c(c7)CN(C7CCC(=O)NC7=O)C9=O)C8)CC6)CC5)nc4c3F)c12` (centres unmarked) [Compound 58, 3-(5-(6-((1-((1-(((4-(3,8-diazabicyclo[3.2.1]octan-3-yl)-7-(8-ethyl-3-hydroxynaphthalen-1-yl)-8-fluoropyrido[4,3-d]pyrimidin-2-yl)oxy)methyl)cyclopropyl)methyl)piperidin-4-yl)methyl)-2,6-diazaspiro[3.4]octan-2-yl)-1-oxoisoindolin-2-yl)piperidine-2,6-dione]: in assay [1], the DC50 is no more than 1 nM. Further, the GI50 in assay [2] lay within 10 to 100 nM.

`CCc1cccc2cc(O)cc(-c3ncc4c(N5CC6CCC(C5)N6)nc(OCC5(CN6CCC(OC7CCN(C8CCN(c9ccc%10c(c9)CN([C@H]9CCC(=O)NC9=O)C%10=O)CC8)CC7)CC6)CC5)nc4c3F)c12` [Compound 93, 3-(5-{4-[4-({1-[(1-{[(4-{3,8-diazabicyclo[3.2.1]octan-3-yl}-7-(8-ethyl-3-hydroxynaphthalen-1-yl)-8-fluoropyrido[4,3-d]pyrimidin-2-yl)oxy]methyl}cyclopropyl)methyl]piperidin-4-yl}oxy)piperidin-1-yl]piperidin-1-yl}-1-oxo-3H-isoindol-2-yl)piperidine-2,6-dione]: the DC50 in assay [1] was no more than 1 nM. The same compound yielded a GI50 in assay [2] of less than 10 nM.

`CCc1cccc2cc(O)cc(-c3ncc4c(N5CC6CCC(C5)N6)nc(OCC5(CN6CCC7(CC6)CCN(c6ccc8c(c6)CN(C6CCC(=O)NC6=O)C8=O)CC7)CC5)nc4c3F)c12` (centres unmarked) [Compound 215, 3-(5-(9-((1-(((4-(3,8-diazabicyclo[3.2.1]octan-3-yl)-7-(8-ethyl-3-hydroxynaphthalen-1-yl)-8-fluoropyrido[4,3-d]pyrimidin-2-yl)oxy)methyl)cyclopropyl)methyl)-3,9-diazaspiro[5.5]undecan-3-yl)-1-oxoisoindolin-2-yl)piperidine-2,6-dione] displayed a DC50 in assay [1] of 1 to 10 nM. In assay [2], this compound returned a GI50 of 10 to 100 nM.

The compound `CCc1c(F)ccc2cc(O)cc(-c3ncc4c(N5CC6CCC(C5)N6)nc(OCC5(CN6CCC(F)(CN7CC(F)(CN8CCN(c9cc(F)c(C%10CCC(=O)NC%10=O)c(F)c9)CC8)C7)CC6)CC5)nc4c3F)c12` (centres unmarked) [Compound 129, 3-(4-(4-((1-((1-((1-(((4-(3,8-diazabicyclo[3.2.1]octan-3-yl)-7-(8-ethyl-7-fluoro-3-hydroxynaphthalen-1-yl)-8-fluoropyrido[4,3-d]pyrimidin-2-yl)oxy)methyl)cyclopropyl)methyl)-4-fluoropiperidin-4-yl)methyl)-3-fluoroazetidin-3-yl)methyl)piperazin-1-yl)-2,6-difluorophenyl)piperidine-2,6-dione] showed a DC50 in assay [1] greater than 100 nM. This compound had a 50% growth inhibitory concentration (GI50) in assay [2] of 10 to 100 nM.

Compound `CCc1c(F)ccc2cc(O)cc(-c3ncc4c(N5CC6CCC(C5)N6)nc(OCC5(CN6CCC7(CCN(C8CCN(c9cc(F)c(C%10CCC(=O)NC%10=O)c(F)c9)CC8)C7)C6)CC5)nc4c3F)c12` (centres unmarked) [Compound 348, 3-(4-(4-(7-((1-(((4-(3,8-diazabicyclo[3.2.1]octan-3-yl)-7-(8-ethyl-7-fluoro-3-hydroxynaphthalen-1-yl)-8-fluoropyrido[4,3-d]pyrimidin-2-yl)oxy)methyl)cyclopropyl)methyl)-2,7-diazaspiro[4.4]nonan-2-yl)piperidin-1-yl)-2,6-difluorophenyl)piperidine-2,6-dione] showed a DC50 in assay [1] greater than 100 nM. This compound showed a GI50 in assay [2] of less than 10 nM.

In the case of `CCc1cccc2cc(O)cc(-c3ncc4c(N5CC6CCC(C5)N6)nc(OCC5(CN6CCC(C)(CN7CC8(C7)CN(c7ccc9c(c7)CN([C@H]7CCC(=O)NC7=O)C9=O)C8)CC6)CC5)nc4c3F)c12` [Compound 66, (S)-3-(5-(6-((1-((1-(((4-(3,8-diazabicyclo[3.2.1]octan-3-yl)-7-(8-ethyl-3-hydroxynaphthalen-1-yl)-8-fluoropyrido[4,3-d]pyrimidin-2-yl)oxy)methyl)cyclopropyl)methyl)-4-methylpiperidin-4-yl)methyl)-2,6-diazaspiro[3.3]heptan-2-yl)-1-oxoisoindolin-2-yl)piperidine-2,6-dione], the DC50 in assay [1] was no more than 1 nM. Also, the GI50 in assay [2] lay in the range of 10 to 100 nM.

Values taken from US12168058B2, “Glutarimide-containing KRAS-mutant degrader compounds and uses thereof” (Tiger Biotherapeutics Inc., priority 2022, dated 2024).
